Values of other authors as cited in paper PMC7700871 (ACS chemical biology, 2020).

Biological target: Abl-1 (Homo sapiens, UniProt P00519)
Details: cited from earlier work

Chain of Abl-1 (P00519 whole entry, species assumed): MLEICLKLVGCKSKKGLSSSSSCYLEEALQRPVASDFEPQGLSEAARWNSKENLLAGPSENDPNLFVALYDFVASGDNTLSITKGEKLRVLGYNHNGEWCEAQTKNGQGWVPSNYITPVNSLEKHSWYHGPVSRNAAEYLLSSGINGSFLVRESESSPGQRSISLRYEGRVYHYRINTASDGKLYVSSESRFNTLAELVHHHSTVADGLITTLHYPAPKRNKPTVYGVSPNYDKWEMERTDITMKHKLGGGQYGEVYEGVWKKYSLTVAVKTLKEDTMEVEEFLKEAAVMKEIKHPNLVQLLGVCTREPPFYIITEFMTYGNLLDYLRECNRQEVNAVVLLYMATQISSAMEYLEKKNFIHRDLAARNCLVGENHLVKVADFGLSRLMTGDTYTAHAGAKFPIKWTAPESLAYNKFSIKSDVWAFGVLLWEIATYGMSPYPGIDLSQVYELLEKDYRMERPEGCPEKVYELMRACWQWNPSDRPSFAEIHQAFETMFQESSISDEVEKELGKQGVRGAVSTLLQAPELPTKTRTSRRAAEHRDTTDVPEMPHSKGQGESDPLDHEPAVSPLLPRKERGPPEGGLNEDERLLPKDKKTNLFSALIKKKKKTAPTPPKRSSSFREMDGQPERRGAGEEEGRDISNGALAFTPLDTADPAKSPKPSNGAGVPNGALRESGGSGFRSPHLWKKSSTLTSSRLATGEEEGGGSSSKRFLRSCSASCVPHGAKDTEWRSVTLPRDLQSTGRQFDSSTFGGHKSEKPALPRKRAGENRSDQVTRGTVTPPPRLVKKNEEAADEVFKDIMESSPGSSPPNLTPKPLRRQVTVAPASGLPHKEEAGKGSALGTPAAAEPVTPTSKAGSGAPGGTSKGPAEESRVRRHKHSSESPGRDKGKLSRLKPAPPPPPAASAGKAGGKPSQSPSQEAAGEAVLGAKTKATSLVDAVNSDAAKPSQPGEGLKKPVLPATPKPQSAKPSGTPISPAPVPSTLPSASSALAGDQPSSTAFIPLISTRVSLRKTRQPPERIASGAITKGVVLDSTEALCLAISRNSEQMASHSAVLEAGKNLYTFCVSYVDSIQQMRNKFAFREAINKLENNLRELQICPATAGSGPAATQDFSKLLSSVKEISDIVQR

SMILES: Cc1ccc(NC(=O)c2ccc(CN3CC[C@H](N(C)C)C3)c(C(F)(F)F)c2)cc1Nc1nccc(-c2cncnc2)n1 [bafetinib]
- global conformation of Abl-1's SH3-SH2-CD module: promote an open global conformation
